From US20050282911A1, “Memantine for the prevention or reduction of suicidality and for treatment of major depression associated with suicidality” (priority 2003, published 2005)
“Also recorded” adds a separate entry of the source.

Tested on: patients with depression of Alzheimer's disease
Experiment: Study MEM-MD-17: memantine in depression of Alzheimer's disease, suicide items of CSDD, MADRS, HAMD
Assay type: in vivo, human
Design: key to Change from Baseline in CSDD item #16 (suicide item): change in item score; 0=absent, 1=mild to intermittent, 2=severe; Change from Baseline in MADRS item #10 (suicide item) / Change from Baseline in HAMD item #3 (suicide item): scale not given here
Description: The objective of this study (MEM-MD-17) was to evaluate the safety and efficacy of memantine and memantine in combination with escitalopram in patients with depression of Alzheimer's disease.
The clinical study was conducted in two phases —12-weeks of open-label treatment with memantine (MEM) followed by 12-weeks of randomized double-blind treatment with memantine+placebo (MEM+PBO) or memantine+escitalopram (MEM+SCT).
Study design. Patients were started on memantine 5 mg/day which was increased to 10 mg/day at end of Week 1. The dose could be further increased to a maximum of 20 mg/day in patients with inadequate response in weekly increments of 5 mg. At end of Week 12, patients were randomized to one of the two treatment groups: MEM+PBO or MEM+SCT. The dose of memantine during the double-blind treatment period was fixed at the same level as at the end of Week 12 and the dose of escitalopram was fixed at 10 mg. Dose adjustments during the double-blind period were not permitted.
Patient Population. A total of 15 patients were enrolled in 2 sites. Three of the 15 patients discontinued during the open-label phase. The remaining 12 were randomized to double-blind treatment, 5 in the MEM+PBO treatment group, and 7 in the MEM+SCT treatment group. A total of 10 patients completed the study.
Endpoints. Several rating scales were used to assess efficacy for depression. The Cornell Scale for Depression in Dementia (CSDD); the HAMD; and the MADRS. The HAMD and MADRS have been described above.
CSDD. This is a […] scale which is subdivided into five sections: (A) Mood-Related Signs (questions 1-4); (B) Behavioral Disturbances (questions 5-8); (C) Physical Signs (questions 9-11); (D) Cyclic Functions (questions 12-15); and (E) Ideational Disturbances (questions 16-19). Question 16 is explicitly directed to suicidal ideation. The scoring system ranges from a=unable to evaluate; 0=absent; 1=mild to intermittent; and 2=severe.
Statistics. The efficacy analyses were based on the ITT population using both last observation carried forward (LOCF) and observed cases (OC) approaches. For each of the parameters, descriptive statistics were presented for the actual values and change from baseline by visit. For categorical variables, frequency distributions were presented.

SMILES: CC12CC3CC(C)(C1)CC(N)(C3)C2.Cl [Memantine, 1-amino-3,5-dimethyladamantane hydrochloride]
- Change from Baseline in CSDD item #16 (suicide item) (Week 12, ITT Population, N = 5 who received memantine throughout, baseline 0.4): −0.4
- Change from Baseline in HAMD item #3 (suicide item) (Week 12, ITT Population, N = 5 who received memantine throughout, baseline 0.8): −0.8
- Change from Baseline in MADRS item #10 (suicide item) (Week 12, ITT Population, N = 5 who received memantine throughout, baseline 1.0): −1.0
- Change from Baseline in CSDD item #16 (suicide item) (Week 12, LOCF, ITT Population, N = 15, baseline 0.4): −0.3
- Change from Baseline in HAMD item #3 (suicide item) (Week 12, LOCF, ITT Population, N = 15, baseline 0.5): −0.5
- Change from Baseline in MADRS item #10 (suicide item) (Week 12, LOCF, ITT Population, N = 15, baseline 0.9): −0.6
- Change from Baseline in CSDD item #16 (suicide item) (Week 24, ITT Population, N = 5 who received memantine throughout, baseline 0.4): −0.3
- Change from Baseline in HAMD item #3 (suicide item) (Week 24, ITT Population, N = 5 who received memantine throughout, baseline 0.8): −0.5
- Change from Baseline in MADRS item #10 (suicide item) (Week 24, ITT Population, N = 5 who received memantine throughout, baseline 1.0): −0.5
- suicidality as measured by 3 different depression rating instruments (change from Baseline at Weeks 12 and 24, hydrochloride): modest but consistent numerical improvement in suicidality; also recorded: trend towards reduced suicidal thoughts and ideation
